# Results reported in patent US7897637B2, “Methods of using flavonoids to enhance memory” (The Salk Institute for Biological Studies, priority 2006, dated 2011).
# System: ERK2 (p42)
# Assay: ERK2 (p42) phosphorylation in hippocampal slices (immunoblotting, densitometry)
# Assay type: cell-based, rat
# Conditions: for p42 phosphoprotein signal normalized to total protein: 1 μM
# Description: Western blots panels A and B) of hippocampal slices treated with (A) 1 μM fisetin or (B) pretreated for 30 minutes with either 50 μM PD98059 (PD) or 10 μM U0126 (U) before the addition of 1 μM fisetin for 5 minutes, which blots were probed with the indicated antibodies.
# Hippocampal slices in artificial cerebral spinal fluid (ACSF) were treated with either 1 μM fisetin for 5-20 minutes or pretreated for 30 minutes with either 50 μM PD98059 (PD) or 10 μM U0126 (J) before the addition of 1 μM fisetin for 5 minutes. Equal amounts of protein were analyzed by SDS-PAGE and immunoblotting with antibodies to phospho-ERK and phospho-CRFB along with antibodies to the unphosphorylated forms of the proteins. The average phosphoprotein signal from the blots was quantified by densitometry and normalized to total protein was plotted±S.D.
compound,measurement,setting,value
"O=c1c(O)c(-c2ccc(O)c(O)c2)oc2cc(O)ccc12 [fisetin, 3,3′,4′,7-tetrahydroxyflavone]",p42 phosphoprotein signal normalized to total protein,5 min,1.68±0.06
same,p42 phosphoprotein signal normalized to total protein,10 min,1.31±0.05
same,p42 phosphoprotein signal normalized to total protein,20 min,1.42±0.03
same,increase in ERK2 phosphorylation,"hippocampal slices, 1 μM fisetin",2 fold
